A word on the IC50: it is the midpoint of a concentration-inhibition curve.

The record followed here is patent US5728710A, “Rapamycin derivatives” (SmithKline Beecham Corporation, priority 1995, dated 1998).

Experiment [1] has as its system Saccharomyces cerevisiae. Kind of experiment: Assay for Antifungal Activity (agar well zone of inhibition). The class given is cell-based. Conditions: zones of inhibition after 48 hours, YPD agar. Here is the method: Yeast organism (Saccharomyces cerevisiae) in logarithmic growth were plated on complete agar medium (YPD). Compounds dissolved in an appropriate aqueous or organic solvent were placed in wells punched in the agar. Plates were incubated for 48 hours and zones of inhibition were measured.

Experiment [2] relates to Spleen cells from BDF1 female mice. Put plainly: Mitogenesis Assay for Immunosuppressive Activity (concanavalin A, 3H-thymidine). Conditions: read-out: Mitogenesis IC50. The class given is cell-based. Here is the method:
Spleen cells from BDF1 female mice were established in RPMI with 10% fetal calf serum at 5×10^6 /mL. One hundred […] of this suspension (5×10^5 cells) were dispensed into 96-well round-bottomed microtiter plates (Linbro, Flow Laboratories). Concanavalin A (5 μg/ml) was added as the mitogenic stimulus, and the final volume in the microtiter wells was adjusted to 200 μL with RPMI. Cell cultures were incubated for 72 hours at 37° C. in a 5% CO2 atmosphere and pulsed with 0.5 μCi ^3 H-thymidine (specific activity […]) for the last 18 hours of the 72 hour culture. The cells were harvested on an automated multiple sample harvester and cell-associated radioactivity counted in a Beckman liquid scintillation counter. The results are expressed as the mean values derived from quadruplicate measurements. Cell viability was determined by trypan blue exclusion after 72 hours of incubation. Compounds to be tested were added to the microtiter plates at the appropriate dilutions prior to the addition of cells.

The mark [3] stands for this setting: Concanavalin A 5 μg/ml, 72 hours at 37° C., 3H-thimidine uptake last 18 hours.
[4] abbreviates: Mus musculus, Concanavalin A 5 μg/ml, 72 hours at 37° C., 3H-thimidine uptake last 18 hours.

Where two headings read alike, the source gives them in different places. Where only a bound is given, the exact number is not on record here.

As to “7-Demethoxy-7 (S)-(2' 4'-dimethoxyphenyl)-rapamycin [Example 15]”, in experiment [1], the “Antifungal IC12” value is given as below 500 ng/mL. Besides, in experiment [2] (setting [3]), the IC50 was below 0.5 µM.

Take `CCO[C@H]1C[C@@H]2CC[C@@H](C)[C@@](O)(O2)C(=O)C(=O)N2CCCC[C@H]2C(=O)O[C@H]([C@H](C)C[C@@H]2CC[C@@H](O)[C@H](OC)C2)CC(=O)[C@H](C)/C=C(\C)[C@@H](O)[C@@H](OC)C(=O)[C@H](C)C[C@H](C)/C=C/C=C/C=C/1C` [Example 1, 7-Demethoxy-7(S)-ethoxyrapamycin]: the IC50 in experiment [2] (setting [4]) is below 0.5 µM.

Consider `CCO[C@@H]1C[C@@H]2CC[C@@H](C)[C@@](O)(O2)C(=O)C(=O)N2CCCC[C@H]2C(=O)O[C@H]([C@H](C)C[C@@H]2CC[C@@H](O)[C@H](OC)C2)CC(=O)[C@H](C)/C=C(\C)[C@@H](O)[C@@H](OC)C(=O)[C@H](C)C[C@H](C)/C=C/C=C/C=C/1C` [Example 2, 7-Demethoxy-7(R)-ethoxyrapamycin], for which the IC50 in experiment [2] (setting [4]) is below 0.5 µM.

Consider `COc1ccc(CO[C@H]2C[C@@H]3CC[C@@H](C)[C@@](O)(O3)C(=O)C(=O)N3CCCC[C@H]3C(=O)O[C@H]([C@H](C)C[C@@H]3CC[C@@H](O)[C@H](OC)C3)CC(=O)[C@H](C)/C=C(\C)[C@@H](O)[C@@H](OC)C(=O)[C@H](C)C[C@H](C)/C=C/C=C/C=C/2C)cc1OC` [Example 3, 7-Demethoxy-7(S)-(3,4-dimethoxybenzyloxy)rapamycin], for which the IC50 in experiment [2] (setting [4]) was below 0.5 µM.

`CO[C@@H]1C[C@H](C[C@@H](C)[C@@H]2CC(=O)[C@H](C)/C=C(\C)[C@@H](O)[C@@H](OC)C(=O)[C@H](C)C[C@H](C)/C=C/C=C/C=C(\C)[C@@H](OCCO)C[C@@H]3CC[C@@H](C)[C@@](O)(O3)C(=O)C(=O)N3CCCC[C@H]3C(=O)O2)CC[C@H]1O` [Example 4, 7-Demethoxy-7(S)-(2-hydroxyethoxy)rapamycin]: the IC50 in experiment [2] (setting [4]) is below 0.5 µM.

For `CO[C@@H]1C[C@H](C[C@@H](C)[C@@H]2CC(=O)[C@H](C)/C=C(\C)[C@@H](O)[C@@H](OC)C(=O)[C@H](C)C[C@H](C)/C=C/C=C/C=C(\C)[C@H](OCCO)C[C@@H]3CC[C@@H](C)[C@@](O)(O3)C(=O)C(=O)N3CCCC[C@H]3C(=O)O2)CC[C@H]1O` [Example 5, 7-Demethoxy-7(R)-(2-hydroxyethoxy)rapamycin], in experiment [2] (setting [4]), the IC50 was below 0.5 µM.

Take `CO[C@@H]1C[C@H](C[C@@H](C)[C@@H]2CC(=O)[C@H](C)/C=C(\C)[C@@H](O)[C@@H](OC)C(=O)[C@H](C)C[C@H](C)/C=C/C=C/C=C(\C)[C@H](OC(C)=O)C[C@@H]3CC[C@@H](C)[C@@](O)(O3)C(=O)C(=O)N3CCCC[C@H]3C(=O)O2)CC[C@H]1O` [Example 6, 7-Demethoxy-7(R)-acetoxyrapamycin]: the IC50 in experiment [2] (setting [4]) is below 0.5 µM.

Turning to `CO[C@@H]1C[C@H](C[C@@H](C)[C@@H]2CC(=O)[C@H](C)/C=C(\C)[C@@H](O)[C@@H](OC)C(=O)[C@H](C)C[C@H](C)/C=C/C=C/C=C(\C)[C@@H](c3ccco3)C[C@@H]3CC[C@@H](C)[C@@](O)(O3)C(=O)C(=O)N3CCCC[C@H]3C(=O)O2)CC[C@H]1O` [Example 7, 7-Demethoxy-7(S)-(2'-furanyl)rapamycin], the IC50 in experiment [2] (setting [4]) is below 0.5 µM.

In the case of `CO[C@@H]1C[C@H](C[C@@H](C)[C@@H]2CC(=O)[C@H](C)/C=C(\C)[C@@H](O)[C@@H](OC)C(=O)[C@H](C)C[C@H](C)/C=C/C=C/C=C(\C)CC[C@@H]3CC[C@@H](C)[C@@](O)(O3)C(=O)C(=O)N3CCCC[C@H]3C(=O)O2)CC[C@H]1O` [Example 8, 7-Demethoxyrapamycin], in experiment [2] (setting [4]), the IC50 is below 0.5 µM.

Regarding `CO[C@@H]1C[C@H](C[C@@H](C)[C@@H]2CC(=O)[C@H](C)/C=C(\C)[C@@H](O)[C@@H](OC)C(=O)[C@H](C)C[C@H](C)/C=C/C=C/C=C(\C)[C@@H](SC)C[C@@H]3CC[C@@H](C)[C@@](O)(O3)C(=O)C(=O)N3CCCC[C@H]3C(=O)O2)CC[C@H]1O` [Example 9, 7-Demethoxy-7(S)-methylthiorapamycin], the IC50 in experiment [2] (setting [4]) is below 0.5 µM.

Take `CO[C@@H]1C[C@H](C[C@@H](C)[C@@H]2CC(=O)[C@H](C)/C=C(\C)[C@@H](O)[C@@H](OC)C(=O)[C@H](C)C[C@H](C)/C=C/C=C/C=C(\C)[C@H](SC)C[C@@H]3CC[C@@H](C)[C@@](O)(O3)C(=O)C(=O)N3CCCC[C@H]3C(=O)O2)CC[C@H]1O` [Example 10, 7-Demethoxy-7(R)-methylthiorapamycin]: the IC50 in experiment [2] (setting [4]) was below 0.5 µM.

As to `CO[C@@H]1C[C@H](C[C@@H](C)[C@@H]2CC(=O)[C@H](C)/C=C(\C)[C@@H](O)[C@@H](OC)C(=O)[C@H](C)C[C@H](C)/C=C/C=C/C=C(\C)[C@@H](Sc3ccccc3)C[C@@H]3CC[C@@H](C)[C@@](O)(O3)C(=O)C(=O)N3CCCC[C@H]3C(=O)O2)CC[C@H]1O` [Example 11, 7-Demethoxy-7 (S)-phenylthiorapamycin], in experiment [2] (setting [4]), the IC50 was below 0.5 µM.

Turning to `C=CC[C@H]1C[C@@H]2CC[C@@H](C)[C@@](O)(O2)C(=O)C(=O)N2CCCC[C@H]2C(=O)O[C@H]([C@H](C)C[C@@H]2CC[C@@H](O)[C@H](OC)C2)CC(=O)[C@H](C)/C=C(\C)[C@@H](O)[C@@H](OC)C(=O)[C@H](C)C[C@H](C)/C=C/C=C/C=C/1C` [Example 13, 7-Demethoxy-7(S)-allylrapamycin], in experiment [2] (setting [4]), the IC50 is below 0.5 µM.

For the compound `CO[C@@H]1C[C@H](C[C@@H](C)[C@@H]2CC(=O)[C@H](C)/C=C(\C)[C@@H](O)[C@@H](OC)C(=O)[C@H](C)C[C@H](C)/C=C/C=C/C=C(\C)[C@H](c3ccco3)C[C@@H]3CC[C@@H](C)[C@@](O)(O3)C(=O)C(=O)N3CCCC[C@H]3C(=O)O2)CC[C@H]1O` [Example 14, 7-Demethoxy-7(R)-(2'-furanyl)rapamycin], the IC50 in experiment [2] (setting [4]) was below 0.5 µM.

For `COc1ccc(C2CC3CCC(C)C(O)(O3)C(=O)C(=O)N3CCCCC3C(=O)OC(C(C)CC3CCC(O)C(OC)C3)CC(=O)C(C)C=C(C)C(O)C(OC)C(=O)C(C)CC(C)C=CC=CC=C2C)c(OC)c1` [Example 16, 7-Demethoxy-7 (R)-2',4'-dimethoxyphenyl)-rapamycin], the “Antifungal IC12” value in experiment [1] is listed as below 500 ng/mL. Further, in experiment [2] (setting [3]), the IC50 was below 1 µM.

As for `CO[C@@H]1C[C@H](C[C@@H](C)[C@@H]2CC(=O)[C@H](C)/C=C(\C)[C@@H](O)[C@@H](OC)C(=O)[C@H](C)C[C@H](C)/C=C/C=C/C=C(\C)C(=O)C[C@@H]3CC[C@@H](C)[C@@](O)(O3)C(=O)C(=O)N3CCCC[C@H]3C(=O)O2)CC[C@H]1O` [Example 17, 7-Demethoxy-7-Oxorapamycin], the IC50 in experiment [2] (setting [4]) was below 0.5 µM.

As to `CO[C@@H]1C[C@H](C[C@@H](C)[C@@H]2CC(=O)[C@H](C)/C=C(\C)[C@@H](O)[C@@H](OC)C(=O)[C@H](C)C[C@H](C)/C=C/C=C/C=C(\C)[C@@H](O)C[C@@H]3CC[C@@H](C)[C@@](O)(O3)C(=O)C(=O)N3CCCC[C@H]3C(=O)O2)CC[C@H]1O` [Example 18, 7-O-Demethylrapamycin], in experiment [2] (setting [4]), the IC50 was below 0.5 µM.

For `CO[C@@H]1C[C@H](C[C@@H](C)[C@@H]2CC(=O)[C@H](C)/C=C(\C)[C@@H](O)[C@@H](OC)C(=O)[C@H](C)C[C@H](C)/C=C/C=C/C=C(\C)[C@H](O)C[C@@H]3CC[C@@H](C)[C@@](O)(O3)C(=O)C(=O)N3CCCC[C@H]3C(=O)O2)CC[C@H]1O` [Example 19, 7-O-Demethyl-7-Epirapamycin], in experiment [2] (setting [4]), the IC50 is below 0.5 µM.

On to `CO[C@@H]1C[C@@H]2CC[C@@H](C)[C@@](O)(O2)C(=O)C(=O)N2CCCC[C@H]2C(=O)O[C@H]([C@H](C)C[C@@H]2CC[C@@H](O)[C@H](OC)C2)CC(=O)[C@H](C)/C=C(\C)[C@@H](O)[C@@H](OC)C(=O)[C@H](C)C[C@H](C)/C=C/C=C/C=C/1C` [Example 20, 7-Epirapamycin], for which the IC50 in experiment [2] (Mus musculus) was below 0.5 µM.
